Laboratory results published in patent publication US11612603B1, “3-triazolyl methyl-1,3,5-triazine-2,4-dione compounds and preparation method and application thereof” (priority 2022, dated 2023).
Where “and” joins values, the source holds several entries; their conditions need not be identical. Identical values can stand only once.

Molecular target: SARS-CoV-2 3CL^pro (Severe acute respiratory syndrome coronavirus 2 (2019-nCoV) (SARS-CoV-2), UniProt P0DTD1)
Assay: biochemical
Conditions: for IC50: 3CL^pro FRET

Compound	IC50 (class symbols)	IC50	other results
COc1cc(Cn2c(=O)n(Cc3cnn[nH]3)c(=O)[nH]/c2=N\c2cc3cn(C)nc3cc2Cl)cc(OC)c1 [Compound 14]	500 to 1000 nM	–	–
Cn1cc2cc(/N=c3\[nH]c(=O)n(Cc4cnn[nH]4)c(=O)n3Cc3cc(F)cc(F)c3)c(Cl)cc2n1 [Compound 15]	–	< 200 nM	–
Cn1cc2cc(/N=c3\[nH]c(=O)n(Cc4cnnn4C)c(=O)n3Cc3cc(F)c(F)cc3F)c(Cl)cc2n1 [Compound 16]	–	< 200 nM	–
Cn1cc2cc(/N=c3\[nH]c(=O)n(Cc4cnnn4C4CC4)c(=O)n3Cc3cc(F)c(F)cc3F)c(Cl)cc2n1 [Compound 21]	200 to 500 nM	–	–
CC(C)n1nncc1Cn1c(=O)[nH]/c(=N\c2cc3cn(C)nc3cc2Cl)n(Cc2cc(F)c(F)cc2F)c1=O [Compound 22]	–	< 200 nM	–
CC(C)Cn1nncc1Cn1c(=O)[nH]/c(=N\c2cc3cn(C)nc3cc2Cl)n(Cc2cc(F)c(F)cc2F)c1=O [Compound 23]	–	< 200 nM	–
Cn1cc2cc(/N=c3\[nH]c(=O)n(Cc4cnnn4C4CCC4)c(=O)n3Cc3cc(F)c(F)cc3F)c(Cl)cc2n1 [Compound 24]	200 to 500 nM	–	–
(E)-6-(2-methyl-2H-indazol-5-yl)imino)-3-(1-ethyl-1H-1,2,3-triazol-5-yl)methyl)-1-(4-fluorobenzyl)-1,3,5-triazine-2,4-dione [Compound 19]	200 to 500 nM	–	–
(E)-6-(6-chloro-2-methyl-2H-indazol-5-yl)imino)-3-(1-ethyl-1H-1,2,3-triazole-5-(yl)methyl)-1-(4-(trifluoromethyl)benzyl)-1,3,5-triazine-2,4-dione [Compound 18]	< 100 nM	< 100 nM	–
(E)-6-(6-chloro-2-methyl-2H-indazol-5-yl)imino)-3-(1-ethyl-1H-1,2,3-triazole-5-yl)methyl)-1-(2,4,5-trifluorobenzyl)-1,3,5-triazine-2,4-dione [Compound 17]	< 100 nM	< 200 nM and < 100 nM and 123 nM	Inhibitory activity on 3CL^pro (inhibition rate) (Conc 0.1 nM): 0.65%; Inhibitory activity on 3CL^pro (inhibition rate) (Conc 1 nM): 5.00%; Inhibitory activity on 3CL^pro (inhibition rate) (Conc 5 nM): 8.20%; Inhibitory activity on 3CL^pro (inhibition rate) (Conc 10 nM): 15.16%; Inhibitory activity on 3CL^pro (inhibition rate) (Conc 20 nM): 18.22%; Inhibitory activity on 3CL^pro (inhibition rate) (Conc 30 nM): 24.39%; Inhibitory activity on 3CL^pro (inhibition rate) (Conc 50 nM): 33.16%; Inhibitory activity on 3CL^pro (inhibition rate) (Conc 100 nM): 45.44%; Inhibitory activity on 3CL^pro (inhibition rate) (Conc 500 nM): 70.62%; Inhibitory activity on 3CL^pro (inhibition rate) (Conc 1000 nM): 89.73%
(E)-6-(6-chloro-2-methyl-2H-indazol-5-yl)imino)-3-(1-ethyl-1H-1,2,3-triazole-5-yl)methyl)-1-(4-fluorobenzyl)-1,3,5-triazine-2,4-dione [Compound 20]	200 to 500 nM	–	–
